Measurements published in US20080293712A1, “Benzo[C][2,7]Naphtyridine Derivatives, Methods of Making Thereof and Methods of Use Thereof” (WYETH, priority 2007, published 2008).
Like-named read-outs stand apart in the source and are kept apart here.

Molecular target: T1, PDK-1 (Homo sapiens, UniProt O15530)
T1 sequence (O15530 1-556): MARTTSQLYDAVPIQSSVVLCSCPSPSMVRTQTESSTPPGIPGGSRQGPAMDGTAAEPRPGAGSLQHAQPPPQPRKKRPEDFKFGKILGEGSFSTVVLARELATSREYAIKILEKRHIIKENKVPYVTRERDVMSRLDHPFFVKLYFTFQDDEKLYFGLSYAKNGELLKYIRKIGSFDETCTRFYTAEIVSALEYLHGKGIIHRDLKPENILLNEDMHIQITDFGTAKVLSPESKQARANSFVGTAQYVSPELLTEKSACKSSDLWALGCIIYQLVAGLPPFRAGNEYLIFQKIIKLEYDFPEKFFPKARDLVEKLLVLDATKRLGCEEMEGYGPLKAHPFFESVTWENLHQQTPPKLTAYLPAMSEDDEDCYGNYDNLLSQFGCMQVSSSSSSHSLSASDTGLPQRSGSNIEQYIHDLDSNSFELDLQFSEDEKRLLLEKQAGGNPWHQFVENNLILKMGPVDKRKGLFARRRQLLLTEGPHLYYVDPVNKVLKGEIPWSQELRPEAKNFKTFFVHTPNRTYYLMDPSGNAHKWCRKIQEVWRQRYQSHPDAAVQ
Experiment: PDK-1 kinase inhibition ELISA assay (phosphorylation of His6-tagged SGK1 S422D by PDK-1)
Format: biochemical

[1] = PDK-1 ELISA, Table 11, read-out: Average IC50

IC50 [1] [µM] | IC50 [µM] | SMILES
0.016 | – | COc1cc2ncc3c(N)nc(-c4cncc(OC[C@@H](N)COS(C)(=O)=O)c4)cc3c2cc1OC [Ib-7, (2R)-2-Amino-3-{[5-(4-amino-8,9-dimethoxybenzo[c]-2,7-naphthyridin-2-yl)pyridin-3-yl]oxy}propyl methanesulfonate]
0.004 | – | COc1cc2ncc3c(N)nc(-c4cncc(OC[C@@H](N)COc5ccc(C(F)(F)F)cn5)c4)cc3c2cc1OC [Ib-145, 2-(5-{[(2R)-2-amino-3-{[5-(trifluoromethyl)pyridin-2-yl]oxy}propyl]oxy}pyridin-3-yl)-8,9-dimethoxybenzo[c][2,7]naphthyridin-4-amine]
0.01 | – | COc1cc2ncc3c(N)nc(-c4cncc(OC[C@@H](N)COc5ccccc5F)c4)cc3c2cc1OC [Ib-141, 2-(5-{[(2R)-2-amino-3-(2-fluorophenoxy)propyl]oxy}pyridin-3-yl)-8,9-dimethoxybenzo[c][2,7]naphthyridin-4-amine]
0.005 | – | COc1cc2ncc3c(N)nc(-c4cncc(OC[C@@H](N)CN(C)Cc5cccc(F)c5)c4)cc3c2cc1OC [Ib-8, (2S)-3-{[5-(4-amino-8,9-dimethoxybenzo[c]-2,7-naphthyridin-2-yl)pyridin-3-yl]oxy}-N1-(3-fluorobenzyl)-N1-methylpropane-1,2-diamine]
0.082 | – | COc1cc2ncc3c(N)nc(-c4cncc(OC[C@@H]5CN=C(Nc6ccccc6)N5)c4)cc3c2cc1OC [Ib-114, 2-(5-{[(5S)-2-anilino-4,5-dihydro-1H-imidazol-5-yl]methoxy}pyridin-3-yl)-8,9-dimethoxybenzo[c][2,7]naphthyridin-4-amine]
6.92 | – | COc1cc2c(cc1OCC1CCN(C)CC1)ncc1c(N)nc(-c3ccncc3)cc12 [Ia-22, 9-Methoxy-8-[(1-methylpiperidin-4-yl)methoxy]-2-pyridin-4-ylbenzo[c]-2,7-naphthyridin-4-amine]
0.06 | – | COc1cc2ncc3c(N)nc(-c4cncc(Oc5ncccc5N)c4)cc3c2cc1OC [Ib-169, 2-{5-[(3-Aminopyridin-2-yl)oxy]pyridin-3-yl}-8,9-dimethoxybenzo[c][2,7]naphthyridin-4-amine]
– | 0.739 | COCCOc1cc2ncc3c(N)nc(N(C)C)cc3c2cc1OC [Ia-60, 9-Methoxy-8-(2-methoxyethoxy)-N^2,N^2-dimethylbenzo[c]-2,7-naphthyridine-2,4-diamine]
0.039 | – | COc1cc2ncc3c(N)nc(-c4cncc(Nc5cccc(C(N)=O)c5)c4)cc3c2cc1OC [Ib-188, 3-{[5-(4-amino-8,9-dimethoxybenzo[c][2,7]naphthyridin-2-yl)pyridin-3-yl]amino}benzamide]
0.506 | – | COc1cc2ncc3c(N)nc(-c4cncc(Nc5ccc(C(=O)Nc6ccccc6)cc5)c4)cc3c2cc1OC [Ib-193, 4-{[5-(4-amino-8,9-dimethoxybenzo[c][2,7]naphthyridin-2-yl)pyridin-3-yl]amino}-N-phenylbenzamide]
0.006 | – | COc1cc2ncc3c(N)nc(-c4cncc(OC[C@@H](N)COc5nc6ccccc6s5)c4)cc3c2cc1OC [Ib-150, 2-(5-{[(2R)-2-amino-3-(1,3-benzothiazol-2-yloxy)propyl]oxy}pyridin-3-yl)-8,9-dimethoxybenzo[c][2,7]naphthyridin-4-amine]
0.007 | – | COc1cc2ncc3c(N)nc(-c4cncc(OC[C@@H](N)COc5ccc(F)c(F)c5)c4)cc3c2cc1OC [Ib-143, 2-(5-{[(2S)-2-amino-3-(3,4-difluorophenoxy)propyl]oxy}pyridin-3-yl)-8,9-dimethoxybenzo[c][2,7]naphthyridin-4-amine]
0.038 | – | COc1cc2ncc3c(N)nc(-c4cncc(OC[C@@H](N)CN5CCC[C@@H]5c5nccs5)c4)cc3c2cc1OC [Ib-102, 2-[5-({(2S)-2-amino-3-[(2R)-2-(1,3-thiazol-2-yl)pyrrolidin-1-yl]propyl}oxy)pyridin-3-yl]-8,9-dimethoxybenzo[c][2,7]naphthyridin-4-amine]
1 | – | COc1cc2ncc3c(N)nc(-c4cccc(C(=O)NCc5cccnc5)c4)cc3c2cc1OC [Ib-248, 3-(4-amino-8,9-dimethoxybenzo[c][2,7]naphthyridin-2-yl)-N-(pyridin-3-ylmethyl)benzamide]
– | 0.047 | COc1cc2ncc3c(N)nc(-c4cncc(Nc5ccccc5CO)c4)cc3c2cc1OC [Ib-196, (2-{[5-(4-amino-8,9-dimethoxybenzo[c][2,7]naphthyridin-2-yl)pyridin-3-yl]amino}phenyl)methanol]
0.006 | – | COc1cc2ncc3c(N)nc(-c4cncc(OC[C@@H](N)Cc5c[nH]c6ccccc56)c4)cc3c2cc1OC [Ib-13, 2-(5-{[(2S)-2-amino-3-(1H-indol-3-yl)propyl]oxy}pyridin-3-yl)-8,9-dimethoxybenzo[c]-2,7-naphthyridin-4-amine]

IC50 [1] [µM] | IC50 [µM] | SMILES
0.006 | – | CC[C@H](N)COc1cncc(-c2cc3c(cnc4cc(OC)c(OC)cc43)c(N)n2)c1 [Ib-14, 2-(5-{[(2S)-2-aminobutyl]oxy}pyridin-3-yl)-8,9-dimethoxybenzo[c]-2,7-naphthyridin-4-amine]
0.183 | – | COc1cc2ncc3c(N)nc(-c4cncc(Nc5ccc(C(N)=O)cc5)c4)cc3c2cc1OC [Ib-206, 4-{[5-(4-amino-8,9-dimethoxybenzo[c][2,7]naphthyridin-2-yl)pyridin-3-yl]amino}benzamide]
> 0.7 | – | COc1ccc(Oc2cncc(-c3cc4c(cnc5cc(OC)c(OC)cc54)c(N)n3)c2)cc1 [Ib-210, 8,9-dimethoxy-2-[5-(4-methoxyphenoxy)pyridin-3-yl]benzo[c][2,7]naphthyridin-4-amine]
> 0.7 | – | COc1cc2ncc3c(N)nc(-c4cncc(Nc5cccc(C#N)c5)c4)cc3c2cc1OC [Ib-179, 3-{[5-(4-amino-8,9-dimethoxybenzo[c][2,7]naphthyridin-2-yl)pyridin-3-yl]amino}benzonitrile]
0.003 | – | COc1cc2ncc3c(N)nc(-c4cncc(OC[C@@H](N)COc5nccs5)c4)cc3c2cc1OC [Ib-156, 2-(5-{[(2R)-2-amino-3-(1,3-thiazol-2-yloxy)propyl]oxy}pyridin-3-yl)-8,9-dimethoxybenzo[c][2,7]naphthyridin-4-amine]
1.15 | – | COc1cc2c(cc1OCCN1CCN(C)CC1)ncc1c(N)nc(-n3ccnc3)cc12 [Ia-10, 2-(1H-imidazol-1-yl)-9-methoxy-8-(2-(4-methylpiperazin-1-yl)ethoxy)benzo[c][2,7]naphthyridin-4-amine]
0.022 | – | COc1cc2ncc3c(N)nc(-c4cncc(OC[C@@H](N)CNc5ccc(C)c(F)c5)c4)cc3c2cc1OC [Ib-81, (2S)-3-{[5-(4-amino-8,9-dimethoxybenzo[c][2,7]naphthyridin-2-yl)pyridin-3-yl]oxy}-N1-(3-fluoro-4-methylphenyl)propane-1,2-diamine]
1 | – | COc1cc2ncc3c(N)nc(-c4cc(F)cc(C#N)c4)cc3c2cc1OC [Ib-241, 3-(4-amino-8,9-dimethoxybenzo[c][2,7]naphthyridin-2-yl)-5-fluorobenzonitrile]
0.053 | – | COc1cc2ncc3c(N)nc(-c4cncc(C#CCN)c4)cc3c2cc1OC [Ib-252, 2-[5-(3-aminoprop-1-yn-1-yl)pyridin-3-yl]-8,9-dimethoxybenzo[c][2,7]naphthyridin-4-amine]
8.83 | – | COCCOc1cc2ncc3c(NCc4cccnc4)nc(NCc4cccnc4)cc3c2cc1OC [Compound I-3, 9-methoxy-8-(2-methoxyethoxy)-N,N′-bis(pyridin-3-ylmethyl)benzo[c]-2,7-naphthyridine-2,4-diamine]
0.007 | – | COc1cc2ncc3c(N)nc(-c4cncc(OC[C@@H](N)CNC(C)(C)c5ccncc5)c4)cc3c2cc1OC [Ib-108, (2S)-3-{[5-(4-amino-8,9-dimethoxybenzo[c][2,7]naphthyridin-2-yl)pyridin-3-yl]oxy}-N1-(1-methyl-1-pyridin-4-ylethyl)propane-1,2-diamine]
0.142 | – | COc1cc2ncc3c(N)nc(-c4cncc(Nc5ccc(CO)cc5)c4)cc3c2cc1OC [Ib-194, (4-{[5-(4-amino-8,9-dimethoxybenzo[c][2,7]naphthyridin-2-yl)pyridin-3-yl]amino}phenyl)methanol]
> 20 | – | CCN1CCCC1CNc1cc2c(cnc3cc(OCCOC)c(OC)cc32)c(NCC2CCCN2CC)n1 (centres unmarked) [Compound I-4, N,N′-bis[(1-ethylpyrrolidin-2-yl)methyl]-9-methoxy-8-(2-methoxyethoxy)benzo[c]-2,7-naphthyridine-2,4-diamine]
0.041 | – | COc1cc2ncc3c(N)nc(-c4cncc(OC[C@@H](N)CNCC5(c6ccccc6)CCCC5)c4)cc3c2cc1OC [Ib-105, (2S)-3-{[5-(4-amino-8,9-dimethoxybenzo[c][2,7]naphthyridin-2-yl)pyridin-3-yl]oxy}-N1-[(1-phenylcyclopentyl)methyl]propane-1,2-diamine]
> 20 | – | COCCOc1cc2ncc3c(N)nc(NCCN4CCCCC4)cc3c2cc1OC [Ia-49, 9-methoxy-8-(2-methoxyethoxy)-N^2-(2-piperidin-1-ylethyl)benzo[c]-2,7-naphthyridine-2,4-diamine]
0.004 | – | COc1cc2ncc3c(N)nc(-c4cncc(OC[C@@H](N)CSc5ccccc5)c4)cc3c2cc1OC [Ib-162, 2-(5-{[(2R)-2-amino-3-(phenylthio)propyl]oxy}pyridin-3-yl)-8,9-dimethoxybenzo[c][2,7]naphthyridin-4-amine]
